Where “and” joins values, the source holds several entries; their conditions need not be identical. Identical values can stand only once. Like-named read-outs stand apart in the source and are kept apart here.
Legend:
5-HT2A receptor = target: T1, 5-HT2A receptor (Homo sapiens, UniProt P28223); test: FLIPR Ca2+ flux functional assay, agonist activity at 5-HT2A; type: cell-based
T1 construct: host or cells: HEK293
Procedure: (§1) Activity at 5-HT2A, 5-HT2B and 5-HT2C receptors was determined using a FLIPR Ca2+ flux assay at WuXi AppTec Co. Ltd. (Hong Kong) Discovery Biology Unit according to their standard protocols. Briefly, stably transfected cells expressing the receptor of interest (HEK293 for 5-HT2A and 5-HT2C; CHO-K1 for 5-HT2B) were grown and plated in a 384 well plate and incubated at 37° C. and 5% CO2 overnight. A 250 mM stock solution of probenecid in FLIPR calcium assay buffer (10 mL) was freshly prepared and combined with a fluorescent dye (Fluo-4 Direct) to give a final assay concentration of 2.5 mM. Reference compounds were 4-fold serially diluted and the screening compounds were 3-fold serially diluted in 100% DMSO for 10 points using Agilent Bravo, and 750 nL was added to a 384 well compound plate using Echo along with 30 μL assay buffer. The fluorescent dye was then added to the assay plate along with assay buffer to a final volume of 40 μL. The cell plate was incubated for 50 min at 37° C. and 5% CO2 and placed into the FLIPR Tetra along with the compound plate. 10 μL of references and compounds were then transferred from the compound plate into the cell plate and the fluorescent signal was read.

5-HT2B receptor = target: T2, 5-HT2B receptor (Homo sapiens, UniProt P41595); test: FLIPR Ca2+ flux functional assay, agonist activity at 5-HT2B; type: cell-based
T2 construct: host or cells: CHO-K1
Procedure: as §1

5-HT2C receptor = target: T3, 5-HT2C receptor (Homo sapiens, UniProt P28335); test: FLIPR Ca2+ flux functional assay, agonist activity at 5-HT2C; type: cell-based
T3 construct: host or cells: HEK293
T3 sequence (P28335 33-458): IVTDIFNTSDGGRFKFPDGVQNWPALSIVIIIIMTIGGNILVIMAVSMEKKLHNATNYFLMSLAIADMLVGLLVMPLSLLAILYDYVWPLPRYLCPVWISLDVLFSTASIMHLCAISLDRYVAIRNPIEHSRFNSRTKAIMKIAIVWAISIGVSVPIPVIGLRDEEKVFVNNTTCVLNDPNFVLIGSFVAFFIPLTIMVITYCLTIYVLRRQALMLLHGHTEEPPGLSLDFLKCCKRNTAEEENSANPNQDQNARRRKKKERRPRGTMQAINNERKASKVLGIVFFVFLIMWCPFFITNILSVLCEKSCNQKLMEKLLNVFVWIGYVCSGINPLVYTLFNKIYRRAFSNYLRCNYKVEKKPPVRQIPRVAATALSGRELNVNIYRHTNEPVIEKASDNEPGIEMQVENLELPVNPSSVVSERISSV
Procedure: as §1

[1] = In vivo pharmacokinetics: plasma and brain exposure after IP administration; parameters: species or system male C57BL/6 mice
Procedure: The systemic exposure of selected examples was studied in non-fasted male C57BL/6 mice weighing between 18.9-25.5 g. Mice had access to food and water ad libitum throughout the pre- and post-dose sampling period.
On the day of dosing, the formulation of each compound was prepared by dissolving solid compound in phosphate buffer saline (50 mM) using vortexing, creating colourless solutions (pH 6.4-6.5) for each compound.
Compounds were dosed to mice by IP injection (10 mL/kg dose volume via a 27G needle; n=9 mice per compound) and blood samples were collected at 5 and 30 min; 1, 2 and 4 h post-dose (n=3 mice per time point for each compound). A maximum of three blood samples were obtained from each mouse, with plasma samples being taken via submandibular bleed (approximately 120 μL). Once collected, blood samples were centrifuged immediately, supernatant plasma was removed, and stored at −80° C. until analysis by LCMS. In addition, at the 5 and 30 min and 4 h post-dose time points, the whole brain was rapidly removed from the carcass soon after the blood collection. The whole brains were blotted to remove excess blood, placed into pre-weighed polypropylene vials, and weighed. The brains were snap frozen in dry ice and subsequently stored frozen (−80° C.) until analysis.
Test compound standard solutions were diluted from a concentrated stock solution (32 mM in H2O) using 50% can in H2O (v/v) and a calibration curve was prepared in a matched matrix to the test samples.
Plasma: The plasma calibration curve was prepared by spiking aliquots of blank mouse plasma (25 μL) with test compound standard solutions (5 μL) and internal standard solution (5 μL of diazepam, 5 μg/mL in 50% acetonitrile in water). Test plasma samples (25 μL) were thawed, mixed, and then spiked with internal standard solution (5 μL). Plasma protein precipitation was performed by addition of acetonitrile (3-fold volume ratio) and thorough vortex mixing. Samples were centrifuged (RCF=9391×g) for 3 minutes and the supernatant (90 μL) was collected for analysis.
Tissue: Pre-weighed tissue samples (brain) were homogenised using a glass rod in buffer containing an EDTA/potassium fluoride solution (0.1 M/4 mg/mL) as a stabilisation cocktail to minimise the potential for ex vivo degradation (3 mL cocktail/g tissue). The tissue homogenate was briefly centrifuged (RCF=79×g) for 10 seconds to separate the foam layer before transferring an aliquot of the tissue homogenate (200 μL) to a fresh Eppendorf tube for sample extraction. Calibration standards were prepared by spiking blank brain homogenate (200 μL) with the solution standards (10 μL) and the internal standard (10 μL). Study samples were similarly prepared, except that acetonitrile (10 μL) was added instead of solution standards to maintain the same volume. Protein precipitation was carried out by the addition of a 3-fold volume of acetonitrile, followed by vortex mixing and centrifugation (RCF=9391×g) for 3 min to recover the supernatant for analysis.
Replicate analysis: Triplicate analytical replicate (ARs) samples were prepared similarly to the standards for each sample type at three concentrations (50, 500 and 2,000 ng/mL) and repeat injections of these ARs were included throughout the analytical run to assess assay performance. The extraction of the test compound from the standards and ARs were conducted as described above.

C57BL/6J mice = test: Biotelemetry and head-twitch response (HTR) experiments; type: in vivo, Mice (C57BL/6J males); details: male C57BL/6 mice, SC, several doses (0.03 to 30 mg/kg)
Source text: Mice (C57BL/6J males) were purchased from the Jackson Laboratory (Bar Harbor, ME, USA) at 5-6 weeks of age and allowed at least 1-2 weeks to acclimate to the NIDA, Intramural Research Program (IRP), animal research facility in Baltimore, MD, USA. The animal facility is fully accredited by the Association for the Assessment and Accreditation of Laboratory Animal Care, and all procedures were approved by the NIDA IRP Animal Care and Use Committee. Mice were initially group housed 3-5 per cage during acclimation and housed in a 12 h light-dark cycle throughout the study, with lights on at 0700 h. Food and water were available ad libitum except during testing. Cohorts of 20-24 mice were used for each test drug. The mice were subjected to experimental testing once every 1-2 weeks for 2-3 months to complete dose-effect curves and antagonist experiments. A minimum of 7 days between treatments was utilized to avoid any tolerance to effects of repeated drug administration. All drug doses represent the weight of the salt dissolved in 0.9% saline vehicle. Mice were tested first in dose-response studies to assess the effects of each compound at doses from 0.03 to 30 mg/kg s.c. and were subsequently tested in antagonist reversal studies utilizing pretreatment with M100907 and WAY100635. All experiments were conducted from 0900 to 1700 local time during the light phase, as sensitivity of rodents to other tryptamine psychedelics is diurnal, with maximal HTR observed in the middle of the light phase. Experiments were run during the light phase also to avoid any potential influence of melatonin receptor activity on HTR as melatonin and related agonists are known to reduce HTR induced by DOI in rats. For each experiment, mice were acclimated to the testing room in their home cage for at least 1 h prior to experimental sessions. Behavioral test sessions were carried out in Tru Scan mouse locomotor arenas equipped with photobeam arrays (Coulbourn Instruments, Holliston, MA, USA), which were modified with cylindrical inserts and transparent floors useful in detecting mouse HTR.
Subcutaneous Temperature Transponder Implants. At least 1 week prior to the start of the experiments, mice received s.c. implanted temperature transponders (14×2 mm, model IPTT-300, Bio Medic Data Systems, Inc., Seaford, DE, USA) under brief isoflurane anesthesia. Mice were single housed post implant for the remainder of the study to protect the transponder from removal by cage mates. Temperature was determined noninvasively using a handheld receiver that is sensitive to signals emitted from the implanted transponders.
Prior to each experiment, mouse body weight and temperature were recorded. Mice were then placed into testing chambers for acclimation. In dose-response studies, after a brief 5 min acclimation, mouse body temperature was recorded for baseline measurement, mice received s.c. injection of test substance or vehicle, and animals were returned to the testing arena for 30 min. During the session, locomotor activity was monitored via photobeam tracking of movements in the horizontal plane to yield distance traveled in centimeter. HTR was monitored by the analysis of GoPro Hero Black 7 video recordings (120 frames per sec and 960p resolution) using a commercially available software package from Clever Sys Inc. (Reston, VA, USA). 82 Post-treatment body temperature values were also recorded, and temperature data are represented as change from pretreatment baseline.
In antagonist reversal experiments, mice received a s.c. injection of either receptor antagonists or vehicle and were returned to the testing chamber for 30 min. During this period, locomotor activity was monitored to examine the potential effects of antagonist treatment on general behavior or movement. At 30 min after antagonist administration, mice were given test drug or vehicle and returned to the chambers for an additional 30 min of video recording used for analyses. […]

Male ICR mice = test: Acute restraint stress - tail suspension test (TST); type: in vivo; details: ICR mice after 5 h acute restraint stress, IP, 10 min before test; P-3 3, 10 mg/kg; P-8 3, 10, 30 mg/kg
Procedure: Male ICR mice (23±3 g) were purchased from BioLASCO (Taipei, Taiwan) at 4-5 weeks of age and allowed 5-7 days to acclimate to the animal research facility at Pharmacology Discovery Services (Taipei, Taiwan). Mice were housed in groups of 10 in a large cage (47×25×15 cm) on a 12-hour light cycle (lights on: 0700) and provided ad libitum food and water except during acute restraint stress and tail-suspension testing. Temperature was maintained at 20-24° C., and all rooms (colony and testing rooms) had similar lighting intensity. All aspects of this work including housing, experimentation, and animal disposal were performed in accordance with the “Guide for the Care and Use of Laboratory Animals: Eighth Edition” (The National Academies Press, Washington, DC, 2011) in a facility accredited by the Association for Assessment and Accreditation of Laboratory Animal Care. […]
Tail Suspension Test (TST) Procedure: Mice were individually suspended on the edge of a shelf, 58 cm above a tabletop, using adhesive tape placed approximately 1 cm from the tip of the tail, for a total duration of 7 minutes. Using a stopwatch, the experimenters blinded to treatment groups recorded the duration of immobility (defined as hanging passively and motionless) during the 5 minutes spanning from 2-7 minutes. The data from 0-2 minutes was not recorded. […]

[2] = 0.083 h, IP 10 mg/kg, individual mouse, 10 mg/kg
[3] = 0.5 h, IP 10 mg/kg, individual mouse, 10 mg/kg
[4] = 4 h, IP 10 mg/kg, individual mouse
[5] = mouse, plasma, male C57BL/6 mice, IP 10 mg/kg
[6] = CHO-K1 cells, Ca2+ flux, read-out: 5-HT2B EC50

T1 sequence (P28223 whole entry): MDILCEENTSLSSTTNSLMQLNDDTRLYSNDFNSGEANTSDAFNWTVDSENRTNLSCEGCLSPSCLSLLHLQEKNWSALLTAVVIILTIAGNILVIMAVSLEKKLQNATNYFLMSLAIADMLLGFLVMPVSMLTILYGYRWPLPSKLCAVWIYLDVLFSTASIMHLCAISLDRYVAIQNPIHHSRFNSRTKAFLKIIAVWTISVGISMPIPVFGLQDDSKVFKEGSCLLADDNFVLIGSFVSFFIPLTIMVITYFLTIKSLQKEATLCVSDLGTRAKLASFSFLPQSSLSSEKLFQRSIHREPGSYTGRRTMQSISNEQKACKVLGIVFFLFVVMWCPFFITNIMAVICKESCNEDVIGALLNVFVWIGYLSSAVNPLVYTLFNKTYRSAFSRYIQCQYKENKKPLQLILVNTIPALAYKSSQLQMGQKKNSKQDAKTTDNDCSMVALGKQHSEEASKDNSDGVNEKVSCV
T2 sequence (P41595 whole entry): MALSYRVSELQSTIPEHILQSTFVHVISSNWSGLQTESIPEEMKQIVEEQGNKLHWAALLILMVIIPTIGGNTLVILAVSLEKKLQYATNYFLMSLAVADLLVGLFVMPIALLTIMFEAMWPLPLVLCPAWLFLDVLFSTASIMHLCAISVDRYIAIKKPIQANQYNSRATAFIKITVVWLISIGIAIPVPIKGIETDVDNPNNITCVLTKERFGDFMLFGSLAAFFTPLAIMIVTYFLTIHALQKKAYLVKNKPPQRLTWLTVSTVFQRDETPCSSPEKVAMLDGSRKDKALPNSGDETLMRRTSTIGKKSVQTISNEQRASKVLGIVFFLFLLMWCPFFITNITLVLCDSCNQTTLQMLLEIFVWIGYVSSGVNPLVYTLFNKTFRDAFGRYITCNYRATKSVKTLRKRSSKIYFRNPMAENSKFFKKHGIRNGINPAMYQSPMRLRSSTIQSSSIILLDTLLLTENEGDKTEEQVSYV

With `COc1ccc2[nH]cc(CCN(C)C)c2n1` [Example P-1, 2-(5-methoxy-1H-pyrrolo[3,2-b]pyridin-3-yl)-N,N-dimethylethan-1-amine] the EC50 (5-HT2A receptor) was 34.9 nM, the Emax (5-HT2A receptor; HEK293 cells, Ca2+ flux) was 47.7% and the EC50 (5-HT2B receptor) was greater than 10000 nM. The Emax (5-HT2B receptor; CHO-K1 cells, Ca2+ flux) was -1.07%, the EC50 (5-HT2C receptor) was 18.8 nM and the Emax (5-HT2C receptor; HEK293 cells, Ca2+ flux) was 74.3%. The “B:P Ratio, Individual” value [1, 2] was 0.24 and 0.34, the “Plasma Concentration, Individual” value [1, 2] was 4300 nM and 7630 nM and the concentration at 0.5 h ([1]; 0.083 h, IP 10 mg/kg, individual mouse, 10 mg/kg, read-out: Brain Parenchyma Concentration, Individual) was 2060 nM and 1040 nM and 2560 nM. For the same molecule, the “B:P Ratio, Mean ± SD” value ([1]; 0.083 h, IP 10 mg/kg, n = 3) was 0.28 ± 0.048, the “B:P Ratio, Individual” value [1, 3] was 0.30 and 2.3 and 1.0 and the “Plasma Concentration, Individual” value [1, 3] was 1030 nM and 307 nM and 420 nM. For the same molecule, the concentration at 0.5 h ([1]; 0.5 h, IP 10 mg/kg, individual mouse, 10 mg/kg, read-out: Brain Parenchyma Concentration, Individual) was 307 nM and 701 nM and 437 nM, the “Brain Parenchyma Concentration, Individual” value [1, 4] was “<LLQ” and the “Plasma Concentration, Individual” value [1, 4] was “<LLQ”. For the same molecule, the concentration at 0.083 h ([1]; male, C57BL/6, mouse, brain, ip, 10 mg/kg, 0.083 h, n = 3, read-out: Brain Parenchyma Concentration, Mean ± SD) was 1890 ± 776 nM, the concentration at 0.5 h ([1]; male, C57BL/6, mouse, brain, ip, 10 mg/kg, 0.5 h, n = 3, read-out: Brain Parenchyma Concentration, Mean ± SD) was 482 ± 201 nM and the Kp at 0.083 h ([1]; male, C57BL/6, mouse, brain/plasma, ip, 10 mg/kg, 0.083 h, individual mouse, read-out: B:P Ratio, Individual) was 0.27. It also gave a Kp at 0.5 h ([1]; male, C57BL/6, mouse, brain/plasma, ip, 10 mg/kg, 0.5 h, n = 3, read-out: B:P Ratio, Mean ± SD) of 1.2 ± 1, a concentration at 0.083 h ([1]; male, C57BL/6, mouse, plasma, ip, 10 mg/kg, 0.083 h, individual mouse, read-out: Plasma Concentration, Individual) of 7660 nM and a concentration at 0.083 h ([1]; male, C57BL/6, mouse, plasma, ip, 10 mg/kg, 0.083 h, n = 3, read-out: Plasma Concentration, Mean ± SD) of 6530 ± 1930 nM. For the same molecule, the concentration at 0.5 h ([1]; male, C57BL/6, mouse, plasma, ip, 10 mg/kg, 0.5 h, n = 3, read-out: Plasma Concentration, Mean ± SD) was 585 ± 387 nM, the Cmax [1, 5] was 6530 nM and the Tmax [1, 5] was 5 min. The AUC(0-t) ([1]; mouse, plasma, male C57BL/6 mice, IP 10 mg/kg, read-out: Plasma AUC0-last) was 1.37 µM·h, the “Head-twitch response (HTR)” value (C57BL/6J mice) was “not promoting increased head-twitch response” and the “Tolerability (temperature, locomotor activity)” value (from here on “Tolerability”) (C57BL/6J mice) was “well-tolerated”.

In the case of `COc1cnc2[nH]cc(CCN(C)C)c2c1` [Example P-3, 2-(5-methoxy-1H-pyrrolo[2,3-b]pyridin-3-yl)-N,N-dimethylethan-1-amine], the “Head-twitch response (HTR)” value (C57BL/6J mice) is reported as “not promoting increased head-twitch response”, the “Tolerability” value (C57BL/6J mice) is reported as “well-tolerated” and the “Immobility time in tail suspension test” value (Male ICR mice) is reported as “decrease the immobility time”.

`COc1ccnc2[nH]cc(CCN(C)C)c12` [Example P-4, 2-(4-methoxy-1H-pyrrolo[2,3-b]pyridin-3-yl)-N,N-dimethylethan-1-amine] showed an Emax (5-HT2A receptor; HEK293 cells, Ca2+ flux) of 35%, an EC50 (5-HT2A receptor; HEK293 cells, Ca2+ flux, read-out: 5-HT2A EC50) of 1230 nM and an Emax (5-HT2B receptor; CHO-K1 cells, Ca2+ flux) of -0.27%. It also gave an EC50 (5-HT2B receptor; [6]) greater than 10000 nM, an Emax (5-HT2C receptor; HEK293 cells, Ca2+ flux) of 17.9% and an EC50 (5-HT2C receptor; HEK293 cells, Ca2+ flux, read-out: 5-HT2C EC50) of 241 nM. For the same molecule, the “Head-twitch response (HTR)” value (C57BL/6J mice) was “not promoting increased head-twitch response” and the “Tolerability” value (C57BL/6J mice) was “well-tolerated”.

With `COc1ccc2[nH]nc(CCN(C)C)c2c1` [Example P-8, 2-(5-methoxy-1H-indazol-3-yl)-N,N-dimethylethan-1-amine] the EC50 (5-HT2B receptor; [6]) was greater than 10000 nM and the “Immobility time in tail suspension test” value (Male ICR mice) was “decrease the immobility time”.

Source: patent US20250163044A1, “COMPOUNDS” (PSYLO PTY LTD, priority 2021, published 2025)
